Assay results: US9605041B2, “Regulatory proteins and inhibitors” (INTRA-CELLULAR THERAPIES, INC., priority 2009, dated 2017)
Entries after “also recorded” stand apart in the source; their conditions may differ.

Experiments:
[1] = biological target: T1, gSAP-16K (16 kDa band) (Homo sapiens, UniProt A4D1B5); assay: In vitro and intact cell photolabeling with 125I-G01 / 3H-G01; assay type: binding; details: 20 nM 125I-G01 on membranes or 3H-G01 on intact cells, photolysis
T1 construct: is rapidly processed into a ˜16 kDa C-terminal fragment (gSAP-16K); endogenous in cells; host or cells: HEK293 membrane preparations (125I-G01) and intact HEK293 cells (3H-G01)
T1 sequence (A4D1B5 733-854): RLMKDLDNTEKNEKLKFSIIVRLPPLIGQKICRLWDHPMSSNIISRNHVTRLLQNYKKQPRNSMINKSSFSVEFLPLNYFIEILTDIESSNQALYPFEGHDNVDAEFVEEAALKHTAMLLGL
Description: For in vitro labeling, membrane pellets are prepared as described above and resuspended in 50 mM Hepes, pH 7.4, 150 mM NaCl, 5 mM MgCl2, 5 mM CaCl2. […] The bound material is eluted in SDS-tricine sample buffer and separated using 10-20% Tris-tricine gels, followed by transfer to PVDF membrane. The membrane is dried and exposed to Kodak MS film for autoradiography. For intact cell labeling, human embryonic kidney cells (HEK293) grown to ˜80% confluency (˜10^7 cells) are incubated with 0.1 μM ^3H-G01 in Opti-MEM for 2 hours in an incubator at 37° C., with 5% CO2 before being transferred to ice for an additional hour. Medium is removed and cells are washed twice with cold phosphate buffered saline (PBS), pH 7.4. […] The immunoprecipitate is washed 3 times with lysis buffer. The immuno-purified (IP) material is eluted with SDS sample buffer and product is separated using a 10-20% Tris-Tricine SDS-PAGE gel, transferred to PVDF membrane, and the membrane dried and exposed to Kodak MS film for autoradiography.
Endogenous γ-secretase components are detected by specific antibodies to Nicastrin, PS1-CTF and Pen-2. […] After lysis and immunoprecipitation with PS1 antibody, bound proteins are separated by 10-20% Tris-tricine SDS-PAGE.
Intact N2a cell labeling is performed by incubation with ^3H-G01. Cells are lysed with RIPA buffer and proteins were immunoprecipitated with gSAP antibody.

[2] = biological target: T2, gSAP (Mus musculus, UniProt Q3TCV3); assay: siRNA knockdown of gSAP in neuroblastoma cells overexpressing APP695, gSAP level and Aβ; assay type: cell-based
T2 construct: pulse-chase labeling of endogenous gSAP in N2a cells; endogenous in cells; host or cells: Neuroblastoma 2a cells stably overexpressing APP695
T2 sequence (Q3TCV3 738-858 limits assumed): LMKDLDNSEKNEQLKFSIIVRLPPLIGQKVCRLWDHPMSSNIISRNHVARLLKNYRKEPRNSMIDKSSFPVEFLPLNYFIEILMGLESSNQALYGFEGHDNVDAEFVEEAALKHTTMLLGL
Description: For cellular gSAP knockdown experiments, small interfering RNA (siRNA) of gSAP is purchased from Dharmacon Inc. The sequences of the siRNA used are as follow: sense sequence: [NT]; antisense sequence: 5'-[NT] Neuroblastoma 2a cell line stably overexpressing APP695 is transfected with siRNA using DharmaFect 2 reagent at a concentration of 50 nM following instructions provided by the manufacturer. […] To assay Aβ, the medium is removed after 48 h of transfection and replaced with Opti-MEM for 3 h incubation. Aβ is then immunoprecipitated from conditioned medium using the 4G8 antibody. Quantitation of Aβ levels in the conditioned medium is also assessed using Aβ40 and Aβ42 ELISA kits (Invitrogen). The procedures are carried out according to the manufacturer's instructions.

[3] = test system: Aβ production; details: Netzer et al. 2003; cited from earlier work
[4] = biological target: T3, gSAP (16 kDa band) (Homo sapiens, UniProt A4D1B5); assay: Affinity capture on immobilized biotin-imatinib beads, silver staining; assay type: binding; details: HEK293 cell lysates, SDS-PAGE
T3 construct: the 16 kDa band is identified as the C-terminal domain of gSAP by MS/MS mass spectrometry; endogenous in cells; host or cells: CHAPSO-solubilized membrane extract of HEK293 cells
T3 sequence (A4D1B5 734-854 limits assumed): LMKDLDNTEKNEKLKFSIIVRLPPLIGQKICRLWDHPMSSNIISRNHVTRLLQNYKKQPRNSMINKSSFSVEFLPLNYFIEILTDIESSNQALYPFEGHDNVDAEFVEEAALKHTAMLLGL
Description: After cell debris is cleared by centrifugation at 1,000 g for 5 mins, the supernatant is subjected to ultracentrifugation at 100,000 g for 1 h. The membrane pellet is then solubilized on ice in 50 mM Hepes, 150 mM NaCl, 5 mM MgCl2, 5 mM CaCl2, and 1% CHAPSO containing protease inhibitors (Roche Inc. cat#04 693 132 001) for 1 h and subject to ultracentrifugation for 1 h at 100,000 g. The soluble membrane extracts are incubated with Myonen™ streptavidin T1 beads (cat#656-01, Invitrogen) containing bound active biotin-imatinib for 3 hr at 4° C. Subsequently, the beads are washed three times with lysate buffer. Bound proteins are eluted with tricine SDS-PAGE sample buffer and separated on 10-20% tris-tricine gels. For immunoblotting, the gel is then transferred to PVDF membrane and probed with γ-secretase antibodies: PS1 antibody (cat#529592) and Pen-2 antibody (cat#NE1008) are from EMD Biosciences and nicastrin antibody is from BD Transduction Laboratories (cat#612290). Silver staining is used to identify protein bands in SDS-PAGE gels. The ˜16 kDa band is excised, trypsinized, and sequenced by tandem MS/MS mass spectrometry.
Endogenous γ-secretase components are detected by specific antibodies to Nicastrin, PS1-CTF and Pen-2. Photoactivatible ^125I and ^3H-G01 are used to label membrane preparations or intact HEK293 cells, respectively. […]

[5] = test system: PDGF receptor; assay: Kinase profiling (Millipore standard assay), PDGF receptor; details: ATP=45 μM
[6] = biological target: T4, Abl kinase (Homo sapiens, UniProt P00519); assay: Kinase profiling (Millipore standard assay), Abl kinase
[7] = test system: Aβ production in Neuroblastoma 2a cells stably overexpressing human APP695; assay: Cellular Aβ production assay, incubation with G01 (4G8 immunoprecipitation, 6E10 blot); assay type: cell-based; details: 10 μM, 3 hr
Description: Neuroblastoma 2a cells stably overexpressing human APP695 are treated with 10 μM G01 for 3 hr. Cells treated with DMSO, or DMSO plus imatinib are used as controls. After 3 hr, conditioned medium is collected and Aβ immunoprecipitation is conducted using 4G8 antibody. The immunoprecipitated Aβ is separated on 10-20% Tris-tricine gel, transferred to PVDF membrane and detected by 6E10 antibody. […]

[8] = biological target: T5, γ-secretase (Homo sapiens, UniProt P49768); assay: In vitro γ-secretase assay, membranes from HEK293 cells with APP-β-CTF; assay type: biochemical
T5 construct: Membrane pellets are prepared from HEK293 cells transfected with APP-β-CTF (CT-100) as described above; endogenous in cells; host or cells: membranes of HEK293 cells transfected with APP-β-CTF (CT-100); gSAP-16K added from BL21 DE3 E. coli
Description: Membrane pellets are prepared from HEK293 cells transfected with APP-β-CTF (CT-100) as described above, and the membranes are washed with assay buffer (10 mM Hepes, 140 mM KOAc, 2.5 mM MgOAc, 0.1 mM CaCl2, 1 mM ATP, pH 7.2) and pelleted at 100,000 g for 30 min at 4° C. Recombinant gSAP-16K (aa733-854 of the human gSAP) is expressed and purified from BL21 DE3 E. coli. The membranes are resuspended in 200 μl of assay buffer with 2 μg recombinant gSAP-16K or the same amount of BSA as control. A parallel system with 1 μM L685,458 (γ-secretase inhibitor) is also used as a control. The membrane suspension is pre-incubated at 4° C. for 1 hr and then incubated for 2 hr at 37° C. to allow in vitro generation of Aβ. The membranes are solubilized in ¼ volume of 200 mM Tris, pH 7.8, 760 mM NaCl, 24 mM EDTA, 10% Triton X-100, and insoluble material is removed by centrifugation at 10,000 g for 20 min. Aβ is immunoprecipitated from the lysate using 4G8 antibody, separated on 10-20% Tris-tricine gel, transferred to PVDF membrane, and subjected to autoradiography using Kodak MR film.

[9] = biological target: T4, Abl kinase; assay: Ki versus Abl kinase; assay type: biochemical
[10] = biological target: panel of 40 kinases; assay: Panel of 40 kinases; assay type: biochemical; details: data not shown
[11] = test system: mouse ΔE-Notch cleavage; assay: ΔE-Notch cleavage in HEK293 cells incubated with test compounds; assay type: cell-based, human; details: 4 h incubation, DAPT positive control
Description: For detection of Notch cleavage, HEK293 human embryonic kidney cells are transfected with mouse ΔE-Notch cDNA with a C-terminal myc tag. For analysis of ΔE-Notch cleavage, cells are incubated with test compounds for 4 h. Cell extracts are prepared by lysing cells in cell lysis buffer (50 mM Tris, pH7.5, 10 mM NaCl, 5 mM EGTA, 1 mM EDTA and complete protease inhibitors (Roche Diagnostics, Indianapolis, Ind.). Protein concentration is determined using Bradford protein detection reagent. Volume is adjusted with cell lysis buffer, then 4× sample loading buffer (Tris-Tricine gel loading buffer) is added, samples are heated 5 min at 95° C., and equivalent amounts of cell protein for each treatment are loaded onto a 10% Bis-Tris gel. C-terminal Notch species are detected with monoclonal anti-c-myc antibody 9E10 (Roche Diagnostics) and fluorescent goat anti-mouse secondary antibody. Fluorescent antibody is quantitated via LiCor Odyssey infrared fluorescence detector.

[12] = test system: Aβ in N2a cell system; assay: Total human Aβ in the N2a cell system (sandwich ELISA, Western blot); assay type: cell-based
Description: Total human Aβ in the N2a cell system is measured in a standard sandwich ELISA by using a specific monoclonal antibody (6E10, Signet Laboratories) to capture the Aβ40 and Aβ42 and an antibody to Aβ17-24 (4G8, Signet Laboratories, Dedham, Mass.) for detection. Cell culture medium (5 μL/well) is diluted to 100 μL in phosphate-buffered saline/0.2% Tween 20 and loaded onto ELISA plates. For Western blot assays, cell medium is diluted with 2× tricine sodium dodecyl sulfate sample buffer, and heated at 95° C. for 5 min. […] Aβ is detected with antibody 4G8 and an Alexa 680-conjugated rabbit anti-mouse secondary and scanned with a LiCor Odyssey infrared scanner.

T4 sequence (P00519 whole entry): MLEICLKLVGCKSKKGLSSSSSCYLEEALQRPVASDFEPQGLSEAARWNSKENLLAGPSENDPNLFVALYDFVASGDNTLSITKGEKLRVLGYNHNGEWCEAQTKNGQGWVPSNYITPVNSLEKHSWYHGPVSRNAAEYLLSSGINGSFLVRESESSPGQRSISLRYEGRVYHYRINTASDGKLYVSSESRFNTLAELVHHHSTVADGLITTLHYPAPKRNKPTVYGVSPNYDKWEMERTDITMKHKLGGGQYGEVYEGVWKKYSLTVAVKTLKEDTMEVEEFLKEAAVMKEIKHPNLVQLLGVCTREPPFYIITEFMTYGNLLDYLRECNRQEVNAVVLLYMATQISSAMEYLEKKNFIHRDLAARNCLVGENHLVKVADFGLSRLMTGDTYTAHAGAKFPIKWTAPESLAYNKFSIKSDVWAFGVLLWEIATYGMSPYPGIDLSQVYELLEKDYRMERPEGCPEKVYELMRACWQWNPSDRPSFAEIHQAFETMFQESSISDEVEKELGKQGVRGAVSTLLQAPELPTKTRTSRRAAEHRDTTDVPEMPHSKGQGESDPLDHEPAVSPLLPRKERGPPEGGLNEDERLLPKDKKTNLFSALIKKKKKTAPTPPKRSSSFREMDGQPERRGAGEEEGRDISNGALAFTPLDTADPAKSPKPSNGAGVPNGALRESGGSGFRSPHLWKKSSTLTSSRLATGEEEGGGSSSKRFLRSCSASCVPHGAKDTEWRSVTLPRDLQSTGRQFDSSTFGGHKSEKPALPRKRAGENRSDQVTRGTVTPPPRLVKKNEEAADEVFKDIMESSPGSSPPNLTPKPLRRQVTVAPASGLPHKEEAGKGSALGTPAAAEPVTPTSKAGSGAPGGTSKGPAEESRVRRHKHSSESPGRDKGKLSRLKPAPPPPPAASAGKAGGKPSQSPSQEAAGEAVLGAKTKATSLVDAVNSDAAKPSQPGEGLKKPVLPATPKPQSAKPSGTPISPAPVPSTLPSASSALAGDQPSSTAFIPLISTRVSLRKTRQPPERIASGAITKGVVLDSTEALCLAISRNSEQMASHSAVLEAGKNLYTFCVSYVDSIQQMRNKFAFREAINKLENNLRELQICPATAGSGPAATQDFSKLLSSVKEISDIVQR

## Cc1ccc(NC(=O)c2ccc(N=[N+]=[N-])cc2O)cc1Nc1nccc(-c2cccnc2)n1 [^3H-G01]
[1]
  photolabeling of the 16 kDa protein (gSAP-16K): specifically labeled

## siRNA: siRNA of gSAP, sense AUGCAGAGCUGGACGACAUUU, antisense 5′-P.AUGUCGUCCAGCUCUGCAUUU (5'-phosphate on antisense, further chemistry not given here)
[2]; gSAP siRNA knockdown
  decrease of the level of Aβ: about 50%
[2]; siRNA 50 nM
  reduction of gSAP level: 72±15%

## Cc1ccc(NC(=O)c2ccc(CN3CCN(C)CC3)cc2)cc1Nc1nccc(-c2cccnc2)n1 [imatinib, reference compound]
[3]
  production of Aβ: inhibits production of Aβ
[2]
  additional effect of imatinib on Aβ levels under gSAP siRNA knockdown: not additive; also recorded: little or no additional effect

## Cc1ccc(NC(=O)c2ccc(CN3CCN(C(=O)CCCC[C@@H]4SC[C@@H]5NC(=O)N[C@@H]54)CC3)cc2)cc1Nc1nccc(-c2cccnc2)n1 [IC200001]
[4]
  binding of the ~16 kDa band (gSAP) to the immobilized compound: does not bind
[5]
  inhibitory activity toward PDGF receptor: no significant inhibitory activity
[6]; ATP=45 μM
  inhibitory activity toward Abl kinase: no significant inhibitory activity

## Cc1ccc(NC(=O)c2ccc(N=[N+]=[N-])cc2O)cc1Nc1nccc(-c2cccnc2)n1 [G01, 4-azido-2-hydroxy-N-(4-methyl-3-(4-(pyridin-3-yl)pyrimidin-2-ylamino)phenyl)benzamide]
[7]
  Aβ in conditioned medium compared to DMSO vehicle: significantly reduces Aβ

## CC(C)C[C@H](NC(=O)[C@H](Cc1ccccc1)C[C@@H](O)[C@H](Cc1ccccc1)NC(=O)OC(C)(C)C)C(=O)N[C@@H](Cc1ccccc1)C(N)=O [L685,458, reference compound]
[8]; 1 μM
  Aβ production in the in vitro γ-secretase assay: abolishes Aβ production

## Cc1ncc(NC(=O)c2ccc(CC3CCN(C)CC3)cc2)cc1Nc1nccc(-c2ccccc2)n1 [N-(6-methyl-5-(4-phenylpyrimidin-2-ylamino)pyridin-3-yl)-4-((1-methylpiperidin-4-yl)methyl)benzamide]
[9]
  Ki: ~12 µM
  weaker activity versus Abl kinase compared to imatinib: 100 fold
[10]
  kinase inhibitory activity against a panel of 40 kinases: little kinase inhibitory activity
[11]
  influence on NOTCH metabolism: do not influence NOTCH metabolism
[12]
  concentrations that significantly lower Aβ: < 500 nM

## Cc1ccc(NC(=O)c2ccc(CN3CCN(CCNC(=O)CCCC[C@@H]4SC[C@@H]5NC(=O)N[C@@H]54)CC3)cc2)cc1Nc1nccc(-c2cccnc2)n1 [IC339239]
[5]; read-out: IC50 against PDGF receptor
  IC50: 6.6 µM
[6]
  IC50: 0.146 µM

B1: gSAP-16K: recombinant 16 kDa C-terminal fragment, aa 733-854 of human gSAP, expressed in E. coli (protein, UniProt A4D1B5 733-854, looked up, fragment)
chain: T1 sequence (A4D1B5 733-854)
[8]; 2 μg recombinant gSAP-16K added to membranes, BSA control
  stimulation of Aβ production: 2.4±0.3 fold
